From ChEMBL document CHEMBL1127385, “Synthesis and diuretic activity of alkyl- and arylguanidine analogs of N,N'-dicyclohexyl-4-morpholinecarboxamidine in rats and dogs” (J Med Chem, 1994)

Legend:
Settings in all cases: in vivo, po
Rattus norvegicus [1] = experiment: Tested for the diuretic activity by measuring the urinary volume after peroral administering 34.8 uM/Kg of drug in rats; format: ADME, organism-based, Urine
Rattus norvegicus [2] = experiment: Ratio of Total electrolytic excretion of sodium and potassium in urine of rats after peroral administration of 105 uM/Kg of drug; format: ADME, organism-based
Rattus norvegicus [3] = experiment: Total electrolytic excretion of sodium in urine of rats after peroral administration of 348 uM/Kg of drug; format: ADME, organism-based
Rattus norvegicus [4] = experiment: Total electrolytic excretion of chlorine in urine of rats after peroral administration of 105 uM/Kg of drug; format: ADME, organism-based
Rattus norvegicus [5] = experiment: Total electrolytic excretion of sodium in urine of rats after peroral administration of 34.8 uM/Kg of drug; format: ADME, organism-based
Rattus norvegicus [6] = experiment: Total electrolytic excretion of sodium in urine of rats after peroral administration of 105 uM/Kg of drug; format: ADME, organism-based
Rattus norvegicus [7] = experiment: Tested for the diuretic activity by measuring the urinary volume after peroral administering 105 uM/Kg of drug in rats; format: ADME, organism-based, Urine
Rattus norvegicus [8] = experiment: Ratio of Total electrolytic excretion of sodium and potassium in urine of rats after peroral administration of 34.8 uM/Kg of drug; format: ADME, organism-based
Rattus norvegicus [9] = experiment: Total electrolytic excretion of potassium in urine of rats after peroral administration of 34.8 uM/Kg of drug; format: ADME, organism-based
Rattus norvegicus [10] = experiment: Ratio of Total electrolytic excretion of sodium and potassium in urine of rats after peroral administration of 348 uM/Kg of drug; format: ADME, organism-based
Rattus norvegicus [11] = experiment: Total electrolytic excretion of chlorine in urine of rats after peroral administration of 34.8 uM/Kg of drug; format: ADME, organism-based
Rattus norvegicus [12] = experiment: Tested for the diuretic activity by measuring the urinary volume after peroral administering 348 uM/Kg of drug in rats; format: ADME, organism-based, Urine
Rattus norvegicus [13] = experiment: Total electrolytic excretion of chlorine in urine of rats after peroral administration of 348 uM/Kg of drug; format: ADME, organism-based
Rattus norvegicus [14] = experiment: Total electrolytic excretion of potassium in urine of rats after peroral administration of 348 uM/Kg of drug; format: ADME, organism-based
Rattus norvegicus [15] = experiment: Total electrolytic excretion of potassium in urine of rats after peroral administration of 105 uM/Kg of drug; format: ADME, organism-based

- V (Rattus norvegicus [1]): 5.6 mL
- Ratio (Rattus norvegicus [2]): 2.8
- Excretion Na+ (Rattus norvegicus [3]): 1.37 m equiv
- Excretion Cl- (Rattus norvegicus [4]): 1.12 m equiv
- Excretion Na+ (Rattus norvegicus [5]): 0.93 m equiv
- Excretion Na+ (Rattus norvegicus [6]): 1.02 m equiv
- V (Rattus norvegicus [7]): 7.3 mL
- Ratio (Rattus norvegicus [8]): 3.4
- Excretion K+ (Rattus norvegicus [9]): 0.27 m equiv
- Ratio (Rattus norvegicus [10]): 3.4
- Excretion Cl- (Rattus norvegicus [11]): 1.04 m equiv
- V (Rattus norvegicus [12]): 9 mL
- Excretion Cl- (Rattus norvegicus [13]): 1.39 m equiv
- Excretion K+ (Rattus norvegicus [14]): 0.4 m equiv
- Excretion K+ (Rattus norvegicus [15]): 0.37 m equiv
SMILES: c1ccc(N/C(=N/C2CCCCC2)N2CCOCC2)cc1
